Data reported in US20130096321A1, “CRYSTALLINE ROTIGOTINE BASE AND PREPARATION PROCESS THEREFOR” (CHEMAGIS LTD., priority 2007, published 2013).

Assay: Thermogravimetric analysis (TGA) of rotigotine base crystalline Form I
Assay type: physicochemical
Details: platinum baskets, heating rate 5° C./minute, FIG. 4
Procedure: Rotigotine base crystalline form I produces a TGA curve as depicted in FIG. 4. […] The TGA measurement was performed using a TA instruments Q500 Thermal analyzer with Universal Software (version 3.88). Samples were analyzed inside platinum baskets at heating rate of 5° C./minute.

decomposition on heating (from TGA curve): does not decompose on heating
thermal stability (from TGA curve): thermally stable
SMILES: CCCN(CCc1cccs1)[C@H]1CCc2c(O)cccc2C1 [crystalline rotigotine base Form I, (S)-(−)-5-hydroxy-2-(N-n-propyl-N-2-thienylethyl)-aminotetralin]
